Kd data for four compounds are collected here from ChEMBL document CHEMBL1144953, “Anti-androgens with full antagonistic activity toward human prostate tumor LNCaP cells with mutated androgen receptor” (Bioorg Med Chem Lett, 2003).

The experiment has as its target T1, Androgen receptor (Homo sapiens, UniProt P10275).
T1 sequence (P10275 whole entry): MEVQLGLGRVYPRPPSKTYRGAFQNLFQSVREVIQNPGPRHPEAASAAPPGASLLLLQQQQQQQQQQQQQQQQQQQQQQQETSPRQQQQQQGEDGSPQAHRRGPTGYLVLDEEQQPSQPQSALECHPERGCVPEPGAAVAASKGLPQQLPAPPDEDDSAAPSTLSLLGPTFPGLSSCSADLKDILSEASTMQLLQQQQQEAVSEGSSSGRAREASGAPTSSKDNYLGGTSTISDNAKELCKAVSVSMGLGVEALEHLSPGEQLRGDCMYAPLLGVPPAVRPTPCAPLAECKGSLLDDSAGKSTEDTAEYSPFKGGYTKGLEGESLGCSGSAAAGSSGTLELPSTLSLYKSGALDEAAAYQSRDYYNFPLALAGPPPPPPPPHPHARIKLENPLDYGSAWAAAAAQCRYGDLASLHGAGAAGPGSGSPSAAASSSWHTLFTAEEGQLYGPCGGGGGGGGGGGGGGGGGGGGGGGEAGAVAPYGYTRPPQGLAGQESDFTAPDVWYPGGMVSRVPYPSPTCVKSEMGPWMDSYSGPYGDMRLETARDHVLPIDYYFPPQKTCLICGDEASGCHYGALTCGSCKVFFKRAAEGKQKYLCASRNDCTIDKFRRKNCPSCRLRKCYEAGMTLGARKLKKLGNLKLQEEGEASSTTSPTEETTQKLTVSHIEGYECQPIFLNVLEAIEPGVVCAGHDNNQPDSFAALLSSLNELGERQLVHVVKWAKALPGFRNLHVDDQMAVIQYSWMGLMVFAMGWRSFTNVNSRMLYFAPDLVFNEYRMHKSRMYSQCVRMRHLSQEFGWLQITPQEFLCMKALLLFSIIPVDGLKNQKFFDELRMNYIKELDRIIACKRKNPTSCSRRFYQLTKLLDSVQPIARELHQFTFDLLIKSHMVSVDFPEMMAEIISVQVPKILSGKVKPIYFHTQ
Put plainly: Dissociation constant against GST-hARLBD was measured in SC-3 cell by using [3H]testosterone as radioligand. The class given is cell-based.
Take `O=C1ON=C(c2ccccc2F)/C1=C/c1ccc(N2CCCC2)cc1`: binding was characterised by a dissociation constant (Kd) of 1.4 nM. Regarding `O=C1ON=C(c2ccc(F)cc2)/C1=C/c1ccc(N2CCCC2)cc1`, the Kd was 1.4 nM.

On to `O=C1ON=C(c2ccc(O)cc2)/C1=C/c1ccc(N2CCCC2)cc1`, for which the Kd worked out at 1.4 nM. This counts as single-digit nanomolar. The same measure for `CCCCN(CCCC)c1ccc(/C=C2\C(=O)ON=C2c2ccccc2)cc1`: 1.4 nM.

By Kd is commonly meant the free concentration of one partner at which half of the binding sites on the other are occupied at equilibrium, for simple one-to-one binding. A lower Kd goes with a tighter complex.
